Assay results: patent EP3033337B1, “SUBSTITUTED IMIDAZOLES AS N-TYPE CALCIUM CHANNEL BLOCKERS” (Janssen Pharmaceutica NV, priority 2013, dated 2015)
pIC50: −log10 of the molar value. Read-outs that look alike come from different tables or passages of the source.

Tests used:
human N-type Ca channel [1] = molecular target: T1, human N-type Ca channel (Homo sapiens, UniProt Q00975); test: Calcium influx assay (FDSS), KCl depolarization, Fluo8 dye; assay type: cell-based; parameters: host or cells: HEK 293; conditions: HEK 293 cells expressing human N-type Ca channel; 100 mM KCl; read-out: N Type IC50 Data FDSS
T1 sequence (Q00975 whole entry): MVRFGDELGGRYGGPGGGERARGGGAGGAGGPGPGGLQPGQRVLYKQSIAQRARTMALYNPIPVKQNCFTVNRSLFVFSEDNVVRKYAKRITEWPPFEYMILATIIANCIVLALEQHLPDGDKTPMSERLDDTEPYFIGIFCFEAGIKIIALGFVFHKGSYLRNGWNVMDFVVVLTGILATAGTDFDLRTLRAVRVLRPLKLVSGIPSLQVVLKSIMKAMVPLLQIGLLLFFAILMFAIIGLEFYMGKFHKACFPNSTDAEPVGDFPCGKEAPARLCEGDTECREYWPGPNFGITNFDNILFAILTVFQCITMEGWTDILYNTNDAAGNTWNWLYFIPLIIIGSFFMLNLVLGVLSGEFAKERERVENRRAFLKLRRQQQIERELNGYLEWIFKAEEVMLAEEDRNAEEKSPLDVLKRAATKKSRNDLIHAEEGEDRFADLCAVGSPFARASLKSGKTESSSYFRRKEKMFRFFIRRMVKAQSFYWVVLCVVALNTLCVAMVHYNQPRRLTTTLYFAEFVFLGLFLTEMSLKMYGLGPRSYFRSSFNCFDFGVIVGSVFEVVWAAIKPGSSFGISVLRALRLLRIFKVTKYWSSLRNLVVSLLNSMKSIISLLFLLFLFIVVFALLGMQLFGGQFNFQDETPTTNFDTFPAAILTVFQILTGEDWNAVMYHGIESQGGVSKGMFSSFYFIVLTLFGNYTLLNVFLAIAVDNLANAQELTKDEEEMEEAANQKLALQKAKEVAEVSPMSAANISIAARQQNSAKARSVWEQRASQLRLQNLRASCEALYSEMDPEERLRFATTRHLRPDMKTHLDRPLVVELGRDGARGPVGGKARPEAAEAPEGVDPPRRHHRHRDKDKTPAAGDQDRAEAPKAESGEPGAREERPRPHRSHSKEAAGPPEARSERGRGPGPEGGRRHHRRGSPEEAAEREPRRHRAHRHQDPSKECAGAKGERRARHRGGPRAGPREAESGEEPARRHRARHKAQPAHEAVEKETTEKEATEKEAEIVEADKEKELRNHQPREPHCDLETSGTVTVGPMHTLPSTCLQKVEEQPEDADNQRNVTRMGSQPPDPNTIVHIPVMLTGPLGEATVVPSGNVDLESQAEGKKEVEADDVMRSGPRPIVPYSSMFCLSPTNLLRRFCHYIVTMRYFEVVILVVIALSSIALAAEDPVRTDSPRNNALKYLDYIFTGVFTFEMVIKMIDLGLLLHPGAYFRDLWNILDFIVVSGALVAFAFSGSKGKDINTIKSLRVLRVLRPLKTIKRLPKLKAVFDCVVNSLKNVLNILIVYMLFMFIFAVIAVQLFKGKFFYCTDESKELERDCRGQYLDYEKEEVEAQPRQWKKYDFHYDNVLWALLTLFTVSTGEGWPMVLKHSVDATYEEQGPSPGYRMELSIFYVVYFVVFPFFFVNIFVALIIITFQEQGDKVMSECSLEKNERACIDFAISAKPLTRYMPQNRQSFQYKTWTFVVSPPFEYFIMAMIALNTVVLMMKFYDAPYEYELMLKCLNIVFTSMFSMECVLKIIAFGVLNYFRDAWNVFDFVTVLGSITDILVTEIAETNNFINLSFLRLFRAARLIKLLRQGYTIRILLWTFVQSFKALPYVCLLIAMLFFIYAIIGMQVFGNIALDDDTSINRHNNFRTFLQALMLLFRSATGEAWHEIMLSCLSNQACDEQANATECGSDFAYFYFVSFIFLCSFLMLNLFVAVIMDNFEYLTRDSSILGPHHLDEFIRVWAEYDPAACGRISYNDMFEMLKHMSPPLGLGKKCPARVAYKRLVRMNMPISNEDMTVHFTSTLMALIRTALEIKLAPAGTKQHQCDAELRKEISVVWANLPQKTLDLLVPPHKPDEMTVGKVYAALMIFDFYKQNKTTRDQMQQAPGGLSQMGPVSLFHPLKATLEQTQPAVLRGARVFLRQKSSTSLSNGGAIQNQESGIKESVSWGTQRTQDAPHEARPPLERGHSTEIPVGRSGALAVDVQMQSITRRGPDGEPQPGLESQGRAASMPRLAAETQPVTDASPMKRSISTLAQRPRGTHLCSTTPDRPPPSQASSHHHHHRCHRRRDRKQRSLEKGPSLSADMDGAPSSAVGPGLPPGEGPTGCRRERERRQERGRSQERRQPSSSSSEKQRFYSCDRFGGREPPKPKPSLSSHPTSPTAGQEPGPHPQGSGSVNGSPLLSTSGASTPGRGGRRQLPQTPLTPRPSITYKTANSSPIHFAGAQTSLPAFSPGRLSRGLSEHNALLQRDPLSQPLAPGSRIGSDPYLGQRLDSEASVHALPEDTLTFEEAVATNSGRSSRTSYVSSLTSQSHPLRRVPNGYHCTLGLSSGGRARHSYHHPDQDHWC
T1 sequence (P54284 whole entry partner): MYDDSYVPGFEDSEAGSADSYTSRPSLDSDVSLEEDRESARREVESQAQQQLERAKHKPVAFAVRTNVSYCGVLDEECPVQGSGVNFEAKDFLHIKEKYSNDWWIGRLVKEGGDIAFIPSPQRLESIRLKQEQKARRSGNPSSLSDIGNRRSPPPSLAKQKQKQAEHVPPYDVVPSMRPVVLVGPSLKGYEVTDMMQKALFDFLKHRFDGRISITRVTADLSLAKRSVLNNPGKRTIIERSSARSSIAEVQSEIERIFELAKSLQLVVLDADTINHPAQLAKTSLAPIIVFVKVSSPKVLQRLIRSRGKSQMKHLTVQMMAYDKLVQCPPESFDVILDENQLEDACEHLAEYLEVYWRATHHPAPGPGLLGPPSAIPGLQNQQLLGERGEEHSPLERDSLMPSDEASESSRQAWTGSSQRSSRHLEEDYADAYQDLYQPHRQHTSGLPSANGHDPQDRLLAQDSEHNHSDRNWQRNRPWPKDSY
T1 sequence (P54289 25-956 partner limits assumed): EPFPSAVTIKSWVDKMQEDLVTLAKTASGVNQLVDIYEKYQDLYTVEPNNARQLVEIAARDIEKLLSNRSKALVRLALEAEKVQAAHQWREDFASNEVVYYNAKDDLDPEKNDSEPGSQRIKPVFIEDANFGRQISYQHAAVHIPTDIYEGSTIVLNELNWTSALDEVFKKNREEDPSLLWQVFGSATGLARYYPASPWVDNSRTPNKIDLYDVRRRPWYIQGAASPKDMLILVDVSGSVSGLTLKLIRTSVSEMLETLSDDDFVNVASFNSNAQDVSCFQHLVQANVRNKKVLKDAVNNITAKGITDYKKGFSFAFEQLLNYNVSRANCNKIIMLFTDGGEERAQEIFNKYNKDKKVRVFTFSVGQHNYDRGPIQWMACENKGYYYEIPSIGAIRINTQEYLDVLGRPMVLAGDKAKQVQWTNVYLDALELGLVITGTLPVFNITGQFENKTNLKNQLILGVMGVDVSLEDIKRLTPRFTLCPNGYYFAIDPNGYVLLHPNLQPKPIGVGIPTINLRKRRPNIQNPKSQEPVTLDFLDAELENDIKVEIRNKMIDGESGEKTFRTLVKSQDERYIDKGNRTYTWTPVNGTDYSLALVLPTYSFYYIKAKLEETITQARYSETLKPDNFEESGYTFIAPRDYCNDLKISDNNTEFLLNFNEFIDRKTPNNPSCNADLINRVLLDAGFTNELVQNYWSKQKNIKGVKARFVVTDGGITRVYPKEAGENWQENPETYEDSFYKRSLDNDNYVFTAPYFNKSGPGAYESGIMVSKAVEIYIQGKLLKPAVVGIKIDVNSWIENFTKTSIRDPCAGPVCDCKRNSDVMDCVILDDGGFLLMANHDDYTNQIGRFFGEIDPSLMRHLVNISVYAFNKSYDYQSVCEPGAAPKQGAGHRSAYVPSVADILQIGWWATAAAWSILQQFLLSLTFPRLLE
T1 sequence (P54289 957-1103 partner limits assumed): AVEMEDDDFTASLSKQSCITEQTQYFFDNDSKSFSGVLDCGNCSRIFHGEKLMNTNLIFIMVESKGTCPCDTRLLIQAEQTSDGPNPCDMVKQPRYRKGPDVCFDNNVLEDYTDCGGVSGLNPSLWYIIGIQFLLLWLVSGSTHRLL
In short: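 HEK293 cells stably expressing the human N-type Ca channel were loaded with Fluo8 and washed in choline-based buffer (pH 7.2, 2 mM CaCl2, 2 mM KCl). Cells were preincubated with serially diluted compound for 15 min in the dark. Ca influx was then recorded by fluorescence after depolarization with 100 mM KCl.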

human N-type Ca channel [2] = molecular target: T1, human N-type Ca channel; test: Electrophysiological response, QPatch (depolarization -80 mV to +20 mV)
Rats = test: Sciatic nerve ligation (SNL) model of neuropathic pain, L5/L6 spinal nerve ligation, von Frey filaments; assay type: in vivo; conditions: response at Tmax
From the text: Left L5 and L6 spinal nerves are isolated adjacent to the vertebral column and were ligated with 5-0 silk suture distal to the dorsal root ganglion, as described by Kim and Chung (1992). The incision was closed with the help of GLUture topical tissue adhesive. At 14 days post-surgery (one day prior to test compound administration), mechanical allodynia was quantified using eight von Frey filaments, calibrated in the range 0.4-15.1 g (Nielsen et al 2005). Rats were placed into individual plastic containers on top of a suspended wire mesh grid and acclimated to the test chambers for at least 15 min. Filaments were applied perpendicular to the mid-plantar paw surface, with enough force to cause slight buckling, and held in place for 6-8 sec until a response was noted as a sharp paw withdrawal, flinching, licking and/or biting immediately upon removal of the filament (Nielsen et al 2005). […] Test compounds of Formula (I) were administered and a response was measured at Tmax. The maximum possible effect (% MPE) was determined to be 100% if the sensitivity in the ipsilateral paw neared that of the contralateral paw. Values from vehicle-treated animals were considered 0 %. The compound effect was determined based on these values.

[3] = N Type IC50 Data Qpatch Pulse=1, Pulse=1, concentration range 0.3-10 µM
[4] = N Type IC50 Data Qpatch Pulse=15, Pulse=15, concentration range 0.3-10 µM
[5] = read-out: Qpatch Pulse=1 (percent inhibition)
[6] = read-out: Qpatch Pulse=15 (percent inhibition)
[7] = N Type IC50 Data Qpatch Pulse=1, Pulse=1, concentration range 0.01-1 µM
[8] = N Type IC50 Data Qpatch Pulse=15, Pulse=15, concentration range 0.01-1 µM

| pIC50 (human N-type Ca channel [1]) | pIC50 (human N-type Ca channel [2]; [3]) | pIC50 (human N-type Ca channel [2]; [4]) | Compound | further results |
| --- | --- | --- | --- | --- |
| 6.40 | 5.23 | 5.83 | COc1ncccc1-c1nc(C2CC(C)(C)OC(C)(C)C2)cn1-c1ccc(F)cc1 [Compound 10, 3-(1-(4-fluorophenyl)-4-(2,2,6,6-tetramethyltetrahydro-2H-pyran-4-yl)-1H-imidazol-2-yl)-2-methoxypyridine] | SNL(%MPE) (Rats; Dose 3 mg/kg): 12.17±11.24%; SNL(%MPE) (Rats; Dose 10 mg/kg): 40.53±13.64%; SNL(%MPE) (Rats; Dose 30 mg/kg): 54.59±13.37%; SNL(%MPE) (Rats; Dose 100 mg/kg): 85.45±8.44% |
| 6.43 | 5.62 | 6.11 | COc1ccccc1-c1nc(C2CC(C)(C)OC(C)(C)C2)cn1-c1ccc(Cl)cc1 [Compound 38, 1-(4-chlorophenyl)-2-(2-methoxyphenyl)-4-(2,2,6,6-tetramethyltetrahydro-2H-pyran-4-yl)-1H-imidazole] | SNL(%MPE) (Rats; Dose 50 mg/kg): 87.01± 9.25% |
| 6.37 | 5.45 | 5.62 | COc1ccccc1-c1nc(C2(O)CC(C)(C)OC(C)(C)C2)cn1-c1ccc(F)c(F)c1 [Compound 107, 4-(1-(3,4-difluorophenyl)-2-(2-methoxyphenyl)-1H-imidazol-4-yl)-2,2,6,6-tetramethyltetrahydro-2H-pyran-4-ol] | – |
| 6.40 | 5.24 | 5.13 | COc1ncccc1-c1nc(C2(O)CC(C)(C)OC(C)(C)C2)cn1-c1ccc(F)c(F)c1 [Compound 108, 4-(1-(3,4-difluorophenyl)-2-(2-methoxypyridin-3-yl)-1H-imidazol-4-yl)-2,2,6,6-tetramethyltetrahydro-2H-pyran-4-ol] | – |
| 6.49 | 5.35 | 5.10 | COc1ccccc1-c1nc(C2(O)CC(C)(C)OC(C)(C)C2)cn1-c1ccc(C(F)(F)F)nc1 [Compound 109, 4-(2-(2-methoxyphenyl)-1-(6-(trifluoromethyl)pyridin-3-yl)-1H-imidazol-4-yl)-2,2,6,6-tetramethyltetrahydro-2H-pyran-4-ol] | – |
| 6.41 | – | – | COc1ncccc1-c1nc(C2(O)CC(C)(C)OC(C)(C)C2)cn1-c1ccc(F)c(Cl)c1 [Compound 110, 4-(1-(3-chloro-4-fluorophenyl)-2-(2-methoxypyridin-3-yl)-1H-imidazol-4-yl)-2,2,6,6-tetramethyltetrahydro-2H-pyran-4-ol] | inhibition at 10 µM (human N-type Ca channel [2]; [5]): 44%; inhibition at 10 µM (human N-type Ca channel [2]; [6]): 30% |
| 6.59 | – | 5.60 | COc1ccccc1-c1nc(C2(O)CC(C)(C)OC(C)(C)C2)cn1-c1ccc(F)c(Cl)c1 [Compound 111, 4-(1-(3-chloro-4-fluorophenyl)-2-(2-methoxyphenyl)-1H-imidazol-4-yl)-2,2,6,6-tetramethyltetrahydro-2H-pyran-4-ol] | inhibition at 10 µM (human N-type Ca channel [2]; [5]): 62% |
| 7.39 | 5.60 | 5.52 | COc1ccccc1-c1nc(C2(O)CC(C)(C)OC(C)(C)C2)cn1-c1ccc(Cl)c(F)c1 [Compound 112, 4-(1-(4-chloro-3-fluorophenyl)-2-(2-methoxyphenyl)-1H-imidazol-4-yl)-2,2,6,6-tetramethyltetrahydro-2H-pyran-4-ol] | – |
| 7.08 | 5.36 | 5.11 | COc1ncccc1-c1nc(C2(O)CC(C)(C)OC(C)(C)C2)cn1-c1ccc(Cl)c(F)c1 [Compound 113, 4-(1-(4-chloro-3-fluorophenyl)-2-(2-methoxypyridin-3-yl)-1H-imidazol-4-yl)-2,2,6,6-tetramethyltetrahydro-2H-pyran-4-ol] | – |
| 6.22 | – | – | CCOc1ncccc1-c1nc(C2(O)CC(C)(C)OC(C)(C)C2)cn1-c1ccc(Cl)cc1 [Compound 114, 4-(1-(4-chlorophenyl)-2-(2-ethoxypyridin-3-yl)-1H-imidazol-4-yl)-2,2,6,6-tetramethyltetrahydro-2H-pyran-4-ol] | pIC50 (human N-type Ca channel [2]; [7]): 6.18; pIC50 (human N-type Ca channel [2]; [8]): < 6.00 |
| 5.84 | – | – | COc1ccccc1-c1nc(C2(O)CC(C)(C)OC(C)(C)C2)cn1-c1ccc(F)c(C#N)c1 [Compound 117, 2-fluoro-5-(4-(4-hydroxy-2,2,6,6-tetramethyltetrahydro-2H-pyran-4-yl)-2-(2-methoxyphenyl)-1H-imidazol-1-yl)benzonitrile] | inhibition at 10 µM (human N-type Ca channel [2]; [5]): 40%; inhibition at 10 µM (human N-type Ca channel [2]; [6]): 25% |
| 6.82 | 5.09 | – | COc1ccccc1-c1nc(C2(O)CC(C)(C)OC(C)(C)C2)cn1-c1ccc(C#N)c(F)c1 [Compound 118, 2-fluoro-4-(4-(4-hydroxy-2,2,6,6-tetramethyltetrahydro-2H-pyran-4-yl)-2-(2-methoxyphenyl)-1H-imidazol-1-yl)benzonitrile] | – |
| 5.89 | – | – | COc1ncccc1-c1nc(C2(O)CC(C)(C)OC(C)(C)C2)cn1-c1ccc(C#N)c(F)c1 [Compound 119, 2-fluoro-4-(4-(4-hydroxy-2,2,6,6-tetramethyltetrahydro-2H-pyran-4-yl)-2-(2-methoxypyridin-3-yl)-1H-imidazol-1-yl)benzonitrile] | inhibition at 10 µM (human N-type Ca channel [2]; [5]): 28% |
| 6.97 | 5.80 | 5.04 | COc1cnccc1-c1nc(C2(O)CC(C)(C)OC(C)(C)C2)cn1-c1ccc(Cl)cc1 [Compound 120, 4-(1-(4-chlorophenyl)-2-(3-methoxypyridin-4-yl)-1H-imidazol-4-yl)-2,2,6,6-tetramethyltetrahydro-2H-pyran-4-ol] | – |
| 5.52 | – | – | CC1(C)CC(c2cn(-c3ccc(Cl)cc3)c(-c3ccc[nH]c3=O)n2)CC(C)(C)O1 [Compound 122, 3-(1-(4-chlorophenyl)-4-(2,2,6,6-tetramethyltetrahydro-2H-pyran-4-yl)-1H-imidazol-2-yl)pyridin-2(1H)-one] | pIC50 (human N-type Ca channel [2]; read-out: N Type IC50 Data Qpatch Pulse=1, Pulse=1, concentration range 0.01-1 µM): < 6.00; pIC50 (human N-type Ca channel [2]; read-out: N Type IC50 Data Qpatch Pulse=15, Pulse=15, concentration range 0.01-1 µM): < 6.00 |
| 6.99 | 5.60 | 5.80 | COc1ccccc1-c1nc(C2=CC(C)(C)OC(C)(C)C2)cn1-c1ccc(Cl)cc1 [Compound 124, 1-(4-chlorophenyl)-2-(2-methoxyphenyl)-4-(2,2,6,6-tetramethyl-3,6-dihydro-2H-pyran-4-yl)-1H-imidazole] | – |
| 6.50 | 5.68 | 5.64 | COc1ccccc1-c1nc(C2=CC(C)(C)OC(C)(C)C2)cn1-c1ccc(Br)c(F)c1 [Compound 125, 1-(4-bromo-3-fluorophenyl)-2-(2-methoxyphenyl)-4-(2,2,6,6-tetramethyl-3,6-dihydro-2H-pyran-4-yl)-1H-imidazole] | – |

| Compound | pIC50 (human N-type Ca channel [1]) | pIC50 (human N-type Ca channel [2]; [3]) | pIC50 (human N-type Ca channel [2]; [4]) | further results |
| --- | --- | --- | --- | --- |
| COc1ccccc1-c1nc(C2CC(C)(C)OC(C)(C)C2)cn1-c1ccc(C#N)c(Cl)c1 [Compound 123, 2-chloro-4-(2-(2-methoxyphenyl)-4-(2,2,6,6-tetramethyltetrahydro-2H-pyran-4-yl)-1H-imidazol-1-yl)benzonitrile] | 6.89 | – | – | pIC50 (human N-type Ca channel [2]; [7]): 6.33; pIC50 (human N-type Ca channel [2]; [8]): < 6.00 |
